Assay results published in ChEMBL document CHEMBL6096702, “Discovery of a Novel p38α-MK2 Complex Inhibitor as a Potential Choice for Autoimmune Diseases” (J Med Chem, 2025).
In brackets after ≈: the same amount, converted by molar mass. Activity calls are given as the source filed them. No cut-off for these calls is given here.

How the values were obtained:
Rattus norvegicus = test: Antiarthritic activity in Mycobacterium tuberculosis H37R-induced female Lewis rat model of arthritis assessed as inhibition of IL-6 production at 0.3 to 1 mg/kg, po administered twice daily for 15 days starting from day 13 after adjuvant administration; type: functional, organism-based; conditions: dose 0.3-1 mg/kg, time 15.0 day
[1] = AUClast in male Sprague-Dawley rat at 2 mg/kg, po measured after 24 hrs by LC-MS/MS analysis; type: ADME, organism-based; conditions: in vivo
[2] = Oral bioavailability in male Sprague-Dawley rat at 2 mg/kg measured after 24 hrs by LC-MS/MS analysis; type: ADME, organism-based; conditions: in vivo
[3] = Volume of distribution at steady state in male Sprague-Dawley rat at 1 mg/kg, iv measured after 24 hrs by LC-MS/MS analysis; type: ADME, organism-based; conditions: in vivo, read-out: Vdss
[4] = AUClast in male Sprague-Dawley rat at 1 mg/kg, iv measured after 24 hrs by LC-MS/MS analysis; type: ADME, organism-based; conditions: in vivo
[5] = Clearance in male Beagle dog at 1 mg/kg, iv measured after 24 hrs by LC-MS/MS analysis; type: ADME, organism-based, Canis lupus familiaris; conditions: in vivo
[6] = Volume of distribution at steady state in male Beagle dog at 1 mg/kg, iv measured after 24 hrs by LC-MS/MS analysis; type: ADME, organism-based, Canis lupus familiaris; conditions: in vivo, read-out: Vdss
[7] = Inhibition of N-terminal GST-tagged wildtype human P38alpha (4 to 152 residues) extracted from Escherichia coli/GST-tagged MK2 (unknown origin) assessed as reduction in HSP27 phosphorylation incubated for 2 hrs in presence of ATP and HSP27-FITC peptide by fluorescence polarization based IMAP assay
[8] = Inhibition of N-terminal GST-tagged wildtype human P38alpha (4 to 152 residues) extracted from Escherichia coli/GST-tagged PRAK (unknown origin) assessed as reduction in HSP27 phosphorylation incubated for 2 hrs in presence of ATP and HSP27-FITC peptide by fluorescence polarization based IMAP assay
[9] = Cmax in male Sprague-Dawley rat at 2 mg/kg, po measured after 24 hrs by LC-MS/MS analysis; type: ADME, organism-based; conditions: in vivo
[10] = AUClast in male Beagle dog at 1 mg/kg, iv measured after 24 hrs by LC-MS/MS analysis; type: ADME, organism-based, Canis lupus familiaris; conditions: in vivo
[11] = Solubility of compound in PBS at pH 7.4 measured after 4 to 24 hrs by LC-MS analysis; type: physicochemical; conditions: time 4-24 hrs
[12] = MRT in male Beagle dog at 1 mg/kg, iv measured after 24 hrs by LC-MS/MS analysis; type: ADME, organism-based, Canis lupus familiaris; conditions: in vivo
[13] = target: Voltage-gated inwardly rectifying potassium channel KCNH2 (Homo sapiens, UniProt Q12809); test: Inhibition of human ERG in HEK293 cells; type: toxicity, cell-based
[14] = Cmax in male Beagle dog at 2 mg/kg, po measured after 24 hrs by LC-MS/MS analysis; type: ADME, organism-based, Canis lupus familiaris; conditions: in vivo
[15] = Half-life in female Lewis rat at 3 mg/kg, po measured after 24 hrs by LC-MS/MS analysis; type: ADME, organism-based; conditions: in vivo

Chain of Voltage-gated inwardly rectifying potassium channel KCNH2 (Q12809 whole entry): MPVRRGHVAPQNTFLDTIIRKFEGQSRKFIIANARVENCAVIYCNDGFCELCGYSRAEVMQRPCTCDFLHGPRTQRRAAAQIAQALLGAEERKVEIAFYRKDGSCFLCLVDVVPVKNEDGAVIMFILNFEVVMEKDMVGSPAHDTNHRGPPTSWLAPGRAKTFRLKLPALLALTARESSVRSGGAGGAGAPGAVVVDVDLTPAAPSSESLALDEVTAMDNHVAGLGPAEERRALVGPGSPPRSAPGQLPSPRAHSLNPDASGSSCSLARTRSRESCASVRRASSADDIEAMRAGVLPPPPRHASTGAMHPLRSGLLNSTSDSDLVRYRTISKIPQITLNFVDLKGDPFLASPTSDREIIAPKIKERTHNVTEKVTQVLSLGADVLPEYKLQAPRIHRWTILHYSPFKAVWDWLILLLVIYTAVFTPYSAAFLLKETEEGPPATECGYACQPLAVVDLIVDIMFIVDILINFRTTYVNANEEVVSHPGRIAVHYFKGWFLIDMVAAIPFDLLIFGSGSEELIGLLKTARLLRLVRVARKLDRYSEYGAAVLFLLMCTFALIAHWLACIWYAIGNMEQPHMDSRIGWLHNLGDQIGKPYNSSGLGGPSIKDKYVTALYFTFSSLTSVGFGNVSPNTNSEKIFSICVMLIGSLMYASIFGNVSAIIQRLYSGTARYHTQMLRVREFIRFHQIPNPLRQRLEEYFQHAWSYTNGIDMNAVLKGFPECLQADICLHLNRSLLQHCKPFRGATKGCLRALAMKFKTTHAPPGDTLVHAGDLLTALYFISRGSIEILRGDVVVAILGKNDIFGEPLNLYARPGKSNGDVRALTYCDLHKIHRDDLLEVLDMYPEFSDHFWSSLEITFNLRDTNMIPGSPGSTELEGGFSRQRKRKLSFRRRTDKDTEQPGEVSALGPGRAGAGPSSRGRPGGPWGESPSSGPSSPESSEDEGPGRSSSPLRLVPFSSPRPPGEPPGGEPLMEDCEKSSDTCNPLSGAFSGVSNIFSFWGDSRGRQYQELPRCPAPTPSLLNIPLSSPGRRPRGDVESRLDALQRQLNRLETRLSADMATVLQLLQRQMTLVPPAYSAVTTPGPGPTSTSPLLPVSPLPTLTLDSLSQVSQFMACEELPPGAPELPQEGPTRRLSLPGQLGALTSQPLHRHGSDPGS

## Cc1cnc(-c2ccnc(C(C)(C)O)n2)c(F)c1-n1c(C)cc(O[C@@H](C)c2ncc(F)cc2F)c(C)c1=O
Rattus norvegicus
  Activity: Active
[1]
  AUC(0-t) at 24 h: 4.34 µg·h/mL
[2]
  bioavailability: 121%
[3]
  Vd: 1.2 L/kg
[4]
  AUC(0-t) at 24 h: 1.79 µg·h/mL
[5]
  clearance: 0.27 L/h/kg
[6]
  Vd: 0.8 L/kg
[7]
  IC50: 0.005 µM
[8]
  IC50: 5.85 µM
[9]
  Cmax: 1.14 µg/mL
[10]
  AUC(0-t) at 24 h: 3.75 µg·h/mL
[11]
  solubility: 0.0883 mg/mL (≈ 168 µM)
[12]
  MRT: 2.9 h
[13]
  IC50: > 30 µM
[14]
  Cmax: 1.12 µg/mL
[15]
  half-life: 3.5 h
